From the NIST ThermoML archive (doi:10.1016/j.jct.2015.03.004)

Assays:
[1] = 101.33 kPa, Liquid; for speed of sound: Sing-around technique in a fixed-path interferometer; for mass density: Vibrating tube method
[2] = refractive index (Na D-line) (dimensionless); details: 298.15 K; 101.33 kPa; Liquid; Standard Abbe refractometry
[3] = mn = molality of the nth substance listed, in mol/kg; details: 298.15 K, 101.33 kPa, Liquid; for speed of sound: Sing-around technique in a fixed-path interferometer; for mass density: Vibrating tube method
[4] = refractive index (Na D-line) (dimensionless); mn = molality of the nth substance listed, in mol/kg; details: 298.15 K, 101.33 kPa, Liquid, Standard Abbe refractometry

C1CCCCC1 [cyclohexane]
[1], 298.15 K
Details	mass density [kg/m3]	speed of sound [m/s]
–	773.87	1253.7

Details	refractive index
[2]	1.4235

c1ccsc1 [thiophene]
[1]
Details	mass density [kg/m3]	speed of sound [m/s]
298.15 K	1058.56	1259
303.15 K	–	1258.7

Details	refractive index
[2]	1.5252

c1ccsc1 [thiophene] + CCCCCC
Details	mass density, [3] [kg/m3]	refractive index, [4]	speed of sound, [3] [m/s]
m1 = 0.0303	655.82	1.3725	1077.3
m1 = 0.0354	655.927	1.3726	1077.3
m1 = 0.0403	656.03	1.3727	1077.3
m1 = 0.0453	656.133	1.3728	1077.3
m1 = 0.0504	656.239	1.3729	1077.4
m1 = 0.0554	656.34	1.373	1077.4
m1 = 0.0603	656.441	1.3731	1077.4
m1 = 0.0654	656.545	1.3732	1077.4
m1 = 0.0704	656.646	1.3733	1077.5
m1 = 0.0753	656.745	1.3734	1077.5
m1 = 0.0804	656.847	1.3735	1077.5
m1 = 0.0852	656.945	1.3736	1077.6
m1 = 0.0903	657.046	1.3737	1077.6
m1 = 0.0954	657.146	1.3738	1077.6
m1 = 0.1004	657.243	1.3739	1077.7
m1 = 0.1053	657.342	1.374	1077.7
m1 = 0.1104	657.441	1.3741	1077.8

CCCCCCn1cc[n+](C)c1.[Br-] [3-hexyl-1-methyl-1H-imidazolium bromide] + C1CCCCC1
m1 = 0.0999
Details	mass density [kg/m3]	refractive index	speed of sound [m/s]
[3]	773.932	–	1254.3
[4]	–	1.4236	–

CCCCCCn1cc[n+](C)c1.[Br-] [3-hexyl-1-methyl-1H-imidazolium bromide]
[1], 298.15 K
Details	mass density [kg/m3]	speed of sound [m/s]
–	1223.81	1587.5

Details	refractive index
[2]	1.5308

CCOS(=O)(=O)[O-].CCn1cc[n+](C)c1 [1-ethyl-3-methylimidazolium ethyl sulfate] + C1CCCCC1
m1 = 0.0999
Details	mass density [kg/m3]	refractive index	speed of sound [m/s]
[3]	773.884	–	1254.3
[4]	–	1.4237	–

C1CCCCC1 [cyclohexane] + c1ccsc1
m2 = 0
Details	mass density [kg/m3]	refractive index	speed of sound [m/s]
[3]	773.87	–	1253.7
[4]	–	1.4235	–

CCOS(=O)(=O)[O-].CCn1cc[n+](C)c1 [1-ethyl-3-methylimidazolium ethyl sulfate]
[1], 298.15 K
Details	mass density [kg/m3]	speed of sound [m/s]
–	1237.72	1680.2

Details	refractive index
[2]	1.4784

c1ccsc1 [thiophene] + C1CCCCC1
Details	mass density, [3] [kg/m3]	refractive index, [4]	speed of sound, [3] [m/s]
m1 = 0.0404	774.512	1.424	1253.4
m1 = 0.0503	774.668	1.4241	1253.4
m1 = 0.0602	774.824	1.4242	1253.3
m1 = 0.0703	774.983	1.4243	1253.2
m1 = 0.0803	775.14	1.4244	1253.2
m1 = 0.0902	775.295	1.4245	1253.1
m1 = 0.1003	775.452	1.4246	1253
m1 = 0.1103	775.608	1.4247	1252.9
m1 = 0.1203	775.764	1.4248	1252.9
m1 = 0.1303	775.917	1.4249	1252.8
m1 = 0.1402	776.075	1.425	1252.7
m1 = 0.1503	776.227	1.4251	1252.6
m1 = 0.1603	776.38	1.4252	1252.6
m1 = 0.1702	776.53	1.4253	1252.5
m1 = 0.1802	776.684	1.4254	1252.4

CCCCCCn1cc[n+](C)c1.[Br-] [3-hexyl-1-methyl-1H-imidazolium bromide] + CCCCCC
m1 = 0.1
Details	mass density [kg/m3]	refractive index	speed of sound [m/s]
[3]	655.221	–	1077.4
[4]	–	1.3737	–

CCCCCC [hexane] + c1ccsc1
m2 = 0
Details	mass density [kg/m3]	refractive index	speed of sound [m/s]
[3]	655.175	–	1077.2
[4]	–	1.3722	–

CCCCCC [hexane]
[1], 298.15 K
Details	mass density [kg/m3]	speed of sound [m/s]
–	655.175	1077.2

Details	refractive index
[2]	1.3722
